Laboratory results from ChEMBL document CHEMBL1275492, “In vitro activity of ceftobiprole against pathogens from two phase 3 clinical trials of complicated skin and skin structure infections” (2008).
≈ marks a conversion by molar mass, not a printed value.

What was measured:
Type in all cases: functional
Pseudomonas aeruginosa = test: Antibacterial activity against Pseudomonas aeruginosa obtained from complicated skin and skin structure infections by agar dilution method
Acinetobacter baumannii = test: Antibacterial activity against Acinetobacter baumannii obtained from complicated skin and skin structure infections by agar dilution method
Pseudomonas fluorescens = test: Antibacterial activity against Pseudomonas fluorescens obtained from complicated skin and skin structure infections by agar dilution method
[1] = test system: Stenotrophomonas maltophilia; test: Antibacterial activity against Stenotrophomonas maltophilia obtained from complicated skin and skin structure infections by agar dilution method
Klebsiella aerogenes = test: Antibacterial activity against Enterobacter aerogenes obtained from complicated skin and skin structure infections by agar dilution method
Klebsiella oxytoca = test: Antibacterial activity against Klebsiella oxytoca obtained from complicated skin and skin structure infections by agar dilution method
Enterococcus faecalis = test: Antibacterial activity against Enterococcus faecalis obtained from complicated skin and skin structure infections by agar dilution method
Streptococcus agalactiae = test: Antibacterial activity against Streptococcus agalactiae obtained from complicated skin and skin structure infections by agar dilution method
Streptococcus pyogenes = test: Antibacterial activity against Streptococcus pyogenes obtained from complicated skin and skin structure infections by agar dilution method
[2] = Antibacterial activity against Streptococcus sp. 'group C' obtained from complicated skin and skin structure infections by agar dilution method
[3] = Antibacterial activity against Streptococcus sp. 'group G' obtained from complicated skin and skin structure infections by agar dilution method
[4] = test system: Streptococcus constellatus; test: Antibacterial activity against Streptococcus constellatus obtained from complicated skin and skin structure infections by agar dilution method
Streptococcus mitis = test: Antibacterial activity against Streptococcus mitis obtained from complicated skin and skin structure infections by agar dilution method
[5] = test system: Staphylococcus intermedius; test: Antibacterial activity against Staphylococcus intermedius obtained from complicated skin and skin structure infections by agar dilution method
Aerococcus viridans = test: Antibacterial activity against Aerococcus viridans obtained from complicated skin and skin structure infections by agar dilution method
Bacillus = test: Antibacterial activity against Bacillus spp. obtained from complicated skin and skin structure infections by agar dilution method
Gemella morbillorum = test: Antibacterial activity against Gemella morbillorum obtained from complicated skin and skin structure infections […]
Gemella = test: Antibacterial activity against Gemella spp. obtained from complicated skin and skin structure infections by agar dilution method
Lactococcus lactis = test: Antibacterial activity against Lactococcus lactis obtained from complicated skin and skin structure infections by agar dilution method
Micrococcus = test: Antibacterial activity against Micrococcus spp. obtained from complicated skin and skin structure infections by agar dilution method
Citrobacter braakii = test: Antibacterial activity against Citrobacter braakii obtained from complicated skin and skin structure infections by agar dilution method
Citrobacter freundii = test: Antibacterial activity against Citrobacter freundii obtained from complicated skin and skin structure infections by agar dilution method
Enterobacter amnigenus = test: Antibacterial activity against Enterobacter amnigenus obtained from complicated skin and skin structure infections by agar dilution method; settings: Lelliottia amnigena
Enterobacter cloacae = test: Antibacterial activity against Enterobacter cloacae obtained from complicated skin and skin structure infections by agar dilution method
Escherichia coli = test: Antibacterial activity against Escherichia coli obtained from complicated skin and skin structure infections by agar dilution method
Klebsiella pneumoniae = test: Antibacterial activity against Klebsiella pneumoniae obtained from complicated skin and skin structure infections by agar dilution method
Morganella morganii = test: Antibacterial activity against Morganella morganii obtained from complicated skin and skin structure infections by agar dilution method
Proteus mirabilis = test: Antibacterial activity against Proteus mirabilis obtained from complicated skin and skin structure infections by agar dilution method
Proteus penneri = test: Antibacterial activity against Proteus penneri obtained from complicated skin and skin structure infections by agar dilution method
Proteus vulgaris = test: Antibacterial activity against Proteus vulgaris obtained from complicated skin and skin structure infections by agar dilution method
Providencia stuartii = test: Antibacterial activity against Providencia stuartii obtained from complicated skin and skin structure infections by agar dilution method
Salmonella = test: Antibacterial activity against Salmonella spp. obtained from complicated skin and skin structure infections by agar dilution method
Serratia marcescens = test: Antibacterial activity against Serratia marcescens obtained from complicated skin and skin structure infections by agar dilution method
Enterococcus faecium = test: Antibacterial activity against Enterococcus faecium obtained from complicated skin and skin structure infections by agar dilution method

## CC(C)(O/N=C(\C(=O)N[C@@H]1C(=O)N2C(C(=O)[O-])=C(C[n+]3ccccc3)CS[C@H]12)c1csc(N)n1)C(=O)O [CEFTAZIDIME]
Pseudomonas aeruginosa
  MIC50: 2 mg/L (≈ 3.66 µM)
  MIC90: > 128 mg/L
Acinetobacter baumannii
  MIC50: > 16 mg/L
  MIC90: > 128 mg/L
Pseudomonas fluorescens
  MIC50: > 16 mg/L
  MIC90: > 128 mg/L
[1]
  MIC50: > 16 mg/L
  MIC90: > 128 mg/L
Klebsiella aerogenes
  MIC50: 0.12 mg/L (≈ 0.22 µM)
  MIC90: 16 mg/L (≈ 29.3 µM)
Klebsiella oxytoca
  MIC50: 0.12 mg/L (≈ 0.22 µM)
  MIC90: 16 mg/L (≈ 29.3 µM)
Enterococcus faecalis
  MIC50: > 128 mg/L
  MIC90: > 128 mg/L
Streptococcus agalactiae
  MIC50: 0.5 mg/L (≈ 0.915 µM)
  MIC90: 1 mg/L (≈ 1.83 µM)
Streptococcus pyogenes
  MIC50: 0.12 mg/L (≈ 0.22 µM)
  MIC90: 0.12 mg/L (≈ 0.22 µM)
[2]
  MIC50: 0.5 mg/L (≈ 0.915 µM)
  MIC90: 4 mg/L (≈ 7.32 µM)
[3]
  MIC50: 0.25 mg/L (≈ 0.457 µM)
  MIC90: 0.25 mg/L (≈ 0.457 µM)
[4]
  MIC50: 2 mg/L (≈ 3.66 µM)
  MIC90: 4 mg/L (≈ 7.32 µM)
Streptococcus mitis
  MIC50: 0.12 mg/L (≈ 0.22 µM)
  MIC90: 0.25 mg/L (≈ 0.457 µM)
[5]
  MIC50: 0.12 mg/L (≈ 0.22 µM)
  MIC90: 0.25 mg/L (≈ 0.457 µM)
Aerococcus viridans
  MIC50: 1 mg/L (≈ 1.83 µM)
  MIC90: 64 mg/L (≈ 117 µM)
Bacillus
  MIC50: 1 mg/L (≈ 1.83 µM)
  MIC90: 64 mg/L (≈ 117 µM)
Gemella morbillorum
  MIC50: 1 mg/L (≈ 1.83 µM)
  MIC90: 64 mg/L (≈ 117 µM)
Gemella
  MIC50: 1 mg/L (≈ 1.83 µM)
  MIC90: 64 mg/L (≈ 117 µM)
Lactococcus lactis
  MIC50: 1 mg/L (≈ 1.83 µM)
  MIC90: 64 mg/L (≈ 117 µM)
Micrococcus
  MIC50: 1 mg/L (≈ 1.83 µM)
  MIC90: 64 mg/L (≈ 117 µM)
Citrobacter braakii
  MIC50: 0.12 mg/L (≈ 0.22 µM)
  MIC90: 16 mg/L (≈ 29.3 µM)
Citrobacter freundii
  MIC50: 0.12 mg/L (≈ 0.22 µM)
  MIC90: 16 mg/L (≈ 29.3 µM)
Enterobacter amnigenus
  MIC50: 0.12 mg/L (≈ 0.22 µM)
  MIC90: 16 mg/L (≈ 29.3 µM)
Enterobacter cloacae
  MIC50: 0.25 mg/L (≈ 0.457 µM)
  MIC90: 64 mg/L (≈ 117 µM)
Escherichia coli
  MIC50: 0.12 mg/L (≈ 0.22 µM)
  MIC90: 0.25 mg/L (≈ 0.457 µM)
Klebsiella pneumoniae
  MIC50: 0.12 mg/L (≈ 0.22 µM)
  MIC90: 64 mg/L (≈ 117 µM)
Morganella morganii
  MIC50: ≤ 0.12 mg/L
  MIC90: 8 mg/L (≈ 14.6 µM)
Proteus mirabilis
  MIC50: 0.06 mg/L (≈ 0.11 µM)
  MIC90: 2 mg/L (≈ 3.66 µM)
Proteus penneri
  MIC50: 0.12 mg/L (≈ 0.22 µM)
  MIC90: 16 mg/L (≈ 29.3 µM)
Proteus vulgaris
  MIC50: 0.12 mg/L (≈ 0.22 µM)
  MIC90: 16 mg/L (≈ 29.3 µM)
Providencia stuartii
  MIC50: 0.12 mg/L (≈ 0.22 µM)
  MIC90: 16 mg/L (≈ 29.3 µM)
Salmonella
  MIC50: 0.12 mg/L (≈ 0.22 µM)
  MIC90: 16 mg/L (≈ 29.3 µM)
Serratia marcescens
  MIC50: 0.12 mg/L (≈ 0.22 µM)
  MIC90: 16 mg/L (≈ 29.3 µM)

## CC1(C)S[C@@H]2[C@H](NC(=O)Cc3ccccc3)C(=O)N2[C@H]1C(=O)O [PENICILLIN G]
Enterococcus faecalis
  MIC: 2 mg/L (≈ 5.98 µM)
  MIC50: 2 mg/L (≈ 5.98 µM)
  MIC90: 4 mg/L (≈ 12 µM)
Enterococcus faecium
  MIC: > 4 mg/L
  MIC50: > 4 mg/L
Streptococcus agalactiae
  MIC50: 0.06 mg/L (≈ 0.179 µM)
  MIC90: 0.06 mg/L (≈ 0.179 µM)
Streptococcus pyogenes
  MIC: ≤ 0.03 mg/L
  MIC50: ≤ 0.03 mg/L
  MIC90: ≤ 0.03 mg/L
[2]
  MIC: ≤ 0.03 mg/L
  MIC50: ≤ 0.03 mg/L
  MIC90: 0.06 mg/L (≈ 0.179 µM)
[3]
  MIC: ≤ 0.03 mg/L
  MIC50: ≤ 0.03 mg/L
  MIC90: ≤ 0.03 mg/L
[4]
  MIC: ≤ 0.03 mg/L
  MIC50: ≤ 0.03 mg/L
  MIC90: 0.12 mg/L (≈ 0.359 µM)
Streptococcus mitis
  MIC50: 0.5 mg/L (≈ 1.5 µM)
  MIC90: 0.5 mg/L (≈ 1.5 µM)
[5]
  MIC50: 0.5 mg/L (≈ 1.5 µM)
  MIC90: 0.5 mg/L (≈ 1.5 µM)
Aerococcus viridans
  MIC50: ≤ 0.03 mg/L
  MIC90: 1 mg/L (≈ 2.99 µM)
Bacillus
  MIC50: ≤ 0.03 mg/L
  MIC90: 1 mg/L (≈ 2.99 µM)
Gemella morbillorum
  MIC50: ≤ 0.03 mg/L
  MIC90: 1 mg/L (≈ 2.99 µM)
Gemella
  MIC50: ≤ 0.03 mg/L
  MIC90: 1 mg/L (≈ 2.99 µM)
Lactococcus lactis
  MIC50: ≤ 0.03 mg/L
  MIC90: 1 mg/L (≈ 2.99 µM)
Micrococcus
  MIC50: ≤ 0.03 mg/L
  MIC90: 1 mg/L (≈ 2.99 µM)
